Results from patent publication US20130084257A1, “TRANSDERMAL ABSORPTION PROMOTER, AND EXTERNAL SKIN FORMULATION THEREOF” (TAKASAGO INTERNATIONAL CORPORATION, priority 2010, published 2013).
Like-named read-outs stand apart in the source and are kept apart here.

How the values were obtained:
[1] = hairless, mouse, 2 mass %, pH 7.4
Procedure: (§1) A skin specimen extirpated from a hairless mouse was placed in a vertical diffusion cell, with the dermal horny layer side being in the donor side and the dermal basement membrane side being in the receiver side. 16 mL of a phosphate-buffered physiological saline solution (PBS solution) (pH 7.4) was added to the receiver side. The cell was heated in a water bath at 37° C. 30 minutes after starting heating, 1.0 g of a hydrogel, having been heated to 37° C., was applied to the donor side using a needleless syringe. The receiver solution was collected in 1 mL portions at specific time intervals. To the receiver side, the PBS solution was added in 1 mL portions to make up for the collected portions.
(§2) The receiver solution thus collected was subjected to high performance liquid chromatography (HPLC) and the amount of permeated paroxetine was calculated.

[2] = Skin permeability test: effect of promoting transdermal absorption of antipyrine (vertical diffusion cell); conditions: hydrogel with 2 mass % antipyrine and 2 mass % test sample; hairless mouse skin; receiver PBS pH 7.4; 37° C.; n = 5
Procedure: as §1, §2

[3] = Skin permeability test: effect of promoting transdermal absorption of paroxetine (vertical diffusion cell); format: in vitro ADME; conditions: hydrogel with 1 mass % paroxetine and 2 mass % test sample; hairless mouse skin; receiver PBS pH 7.4; 37° C.; n = 5
Text: As a control, purified water was used as a substitute for the test samples.
Device: Elite LaChrom System (manufactured by Hitachi Ltd.)
Column: YMS-Pack ODS-A 4.6 mm×150 mm (manufactured by YMC Co., Ltd.)
Eluent: phosphate buffer (pH 3.5)/acetonitrile=35/65 (V/V)
Measurement wavelength: 235 nm

Row | SMILES | Flux of antipyrine (transdermal absorption amount per unit time and unit area) [1] [μg/cm^2/h] | Lagtime of antipyrine (transdermal absorption speed) [1] [h] | Flux of antipyrine (transdermal absorption amount per unit time and unit area) [2] [μg/cm^2/h] | Lagtime of antipyrine (transdermal absorption speed) [2] [h] | Flux of paroxetine (transdermal absorption amount per unit time and unit area) [3] [μg/cm^2/h] | Lagtime of paroxetine (transdermal absorption speed) [3] [h]
1 | CC1CCC(C(C)C)C(OCC(C)(O)CO)C1 (centres unmarked) [CA1, 2-methyl-3-(menthoxy)propane-1,2-diol] | 150.71 ± 5.46 | 3.20 ± 0.24 | – | – | – | –
2 | CC1CCC(C(C)C)C(OCCO)C1 (centres unmarked) [CA5, 2-(menthoxy)ethanol] | 224.59 ± 19.56 | 1.36 ± 0.28 | – | – | – | –
3 | CC1CCC(C(C)C)C(O)C1 (centres unmarked) [Sample 1-Menthol, 1-menthol] | – | – | 300.52 ± 34.42 | 0.53 ± 0.02 | 185 ± 31.1 | 3.84 ± 1.60
